Data published in article PMC8625065 (Molecules, 2021).
Structures can show the parent of a compound that is named as a salt. Marks after values point to notes of the source that are not given here.

What was measured:
[1] = system: poly (dAdT)2 (DNA, polymer) AT; experiment: UV thermal melting, 260 nm; settings: Na+ (sodium cacodylate, I = 0.05 M); sodium cacodylate buffer pH 7
[2] = system: poly (dAdT)2 (DNA, polymer) AT; experiment: fluorescence titration, Scatchard; settings: Na+ (sodium cacodylate, I = 0.05 M); sodium cacodylate buffer pH 7.0, 25 °C; polynucleotide concentration as phosphates; per base
[3] = system: poly A-poly U (RNA, polymer) A/U; experiment: fluorescence titration, Scatchard; settings: Na+ (sodium cacodylate, I = 0.05 M); sodium cacodylate buffer pH 7.0, 25 °C; polynucleotide concentration as phosphates; per base
[4] = system: A549 (lung adenocarcinoma); experiment: MTT proliferation assay, 72 h; format: cell-based; settings: Homo sapiens, A549 cells
Experimental: (§1) The cell lines HeLa (cervical carcinoma), SW620 (colorectal adenocarcinoma, metastatic), A549 (lung adenocarcinoma), HepG2 (hepatocellular carcinoma) and HFF (human foreskin fibroblasts) were cultured as monolayers and maintained in Dulbecco’s modified Eagle medium (DMEM), supplemented with 10% fetal bovine serum (FBS), 2mM L-glutamine, 100 U/mL penicillin and 100 μg/mL streptomycin in a humidified atmosphere with 5% CO2 at 37 °C.
(§2) Cells were seeded onto 96-well microtiter plates at a seeding density of 3000 cells/well for carcinoma cell lines, and 5000 cells/well for normal human fibroblasts. The next day, cells were treated with test agents at five different concentrations (0.01–100 µM) and further incubated for 72 h. […] Following 72 h incubation, the MTT assay was performed and measured absorbances were transformed into percentage of cell growth as described previously. Results were obtained from three independent experiments.

[5] = system: HeLa (cervical carcinoma); experiment: MTT proliferation assay, 72 h; format: cell-based, human; settings: for IC50: Homo sapiens, HeLa cells, MTT, 72 h
Experimental: as §1, §2

[6] = system: HepG2 (hepatocellular carcinoma); experiment: MTT proliferation assay, 72 h; format: cell-based, human; settings: for IC50: Homo sapiens, HepG2 cells, MTT, 72 h
Experimental: as §1, §2

[7] = system: SW620 (colorectal adenocarcinoma, metastatic); experiment: MTT proliferation assay, 72 h; format: cell-based, human; settings: for IC50: Homo sapiens, SW-620, SW620 cells, MTT, 72 h
Experimental: as §1, §2

[8] = system: HFF (human foreskin fibroblasts); experiment: MTT proliferation assay, 72 h, non-tumor cells; format: cell-based; parameters: selectivity index (SI): reference not given here; settings: for IC50: Homo sapiens, Fibroblast, non-tumor HFF fibroblasts, MTT, 72 h
Experimental: as §1, §2

ctDNA (calf thymus DNA) = experiment: Fluorimetric titration, Scatchard processing; format: binding; settings: pH 7.0, sodium cacodylate buffer, I = 0.05 mol dm^-3
Experimental: (§3) Compound solutions were used for measurements in aqueous buffer (pH = 7, sodium cacodylate buffer, I = 0.05 mol dm^−3). Polynucleotides were purchased as noted: poly A-poly U, poly (dAdT)2 and calf thymus (ct)DNA (Sigma-Aldrich). Polynucleotides were dissolved in Na-cacodylate buffer, I = 0.05 mol dm^−3, pH = 7. The calf thymus ctDNA was additionally sonicated and filtered through a […]. Polynucleotide concentration was determined spectroscopically as the concentration of phosphates.
(§4) Fluorescence spectra were recorded on a Varian Cary Eclipse spectrophotometer at 25 °C using appropriate 1cm path quartz cuvettes. Fluorometric experiments were performed at pH = 7 (I = 0.05 mol dm^−3, sodium cacodylate buffer) by adding portions of polynucleotide solution into the solution of the studied compound. In fluorometric experiments, an excitation wavelength of λexc ≥ 300 nm was used to avoid the inner filter effect caused due to increasing absorbance of the polynucleotide. Emissions were determined in the range λem = 300–600 nm. Values for Ks obtained by processing titration data using the Scatchard equation [40], in most titrations have satisfactory correlation coefficients (≥0.98).

p(dAdT)2 (AT-DNA) = experiment: Fluorimetric titration, Scatchard processing; format: binding; settings: p(dAdT)2, pH 7.0, sodium cacodylate buffer, I = 0.05 mol dm^-3
Experimental: as §3, §4

poly A-poly U (AU-RNA) = experiment: Fluorimetric titration, Scatchard processing; format: binding; settings: pH 7.0, sodium cacodylate buffer, I = 0.05 mol dm^-3
Experimental: as §3, §4

ctDNA = experiment: Thermal melting experiment; format: binding, calf; settings: r = [compound]/[polynucleotide] = 0.3, pH 7.0, error ±0.5 °C
Experimental: (§5) Compound solutions were used for measurements in aqueous buffer (pH = 7, sodium cacodylate buffer, I = 0.05 mol dm^−3). Polynucleotides were purchased as noted: poly A-poly U, poly (dAdT)2 and calf thymus (ct)DNA (Sigma-Aldrich). Polynucleotides were dissolved in Na-cacodylate buffer, I = 0.05 mol dm^−3, pH = 7. The calf thymus ctDNA was additionally sonicated and filtered through a […]. Polynucleotide concentration was determined spectroscopically as the concentration of phosphates. UV–Vis spectra were recorded on a Varian Cary 100 Bio spectrophotometer using 1cm path quartz cuvettes. Calibration experiments were performed at 25 °C and pH = 7 (I = 0.05 mol dm^−3, sodium cacodylate buffer). Thermal melting curves for DNA and their complexes with studied compounds were determined as previously described by following the absorption change at 260 nm as a function of temperature. The absorbance of the ligands was subtracted from every curve and the absorbance scale was normalized. Tm values are the midpoints of the transition curves determined from the maximum of the first derivative and checked graphically by the tangent method. The ΔTm values were calculated by subtracting the Tm of the free nucleic acid from the Tm of the complex. Every ΔTm value reported here was the average of at least two measurements. The error in ΔTm is ±0.5 °C.

poly A-poly U = experiment: Thermal melting experiment; format: binding; settings: r = 0.3, pH 7.0, error ±0.5 °C
Experimental: as §5

poly(dAdT)2 = experiment: Thermal melting experiment; format: binding; settings: poly(dAdT)2, r = 0.3, pH 7.0; error ±0.5 °C
Experimental: as §5

[9] = system: poly A-poly U (RNA, polymer) A/U; experiment: UV thermal melting, 260 nm; settings: Na+ (sodium cacodylate, I = 0.05 M); sodium cacodylate buffer pH 7
[10] = system: poly A-poly U (RNA, polymer) A/U; experiment: CD titration; settings: Na+ (sodium cacodylate, I = 0.05 M); sodium cacodylate buffer pH 7, 25 °C; weak negative ICD near 300 nm, intercalation
[11] = Solubility of stock solution in water; format: physicochemical; settings: c = 2 × 10^−3 mol dm^−3
Source text: Based upon the antiproliferative activity, several compounds from a series of novel amidine- and amidoxime-substituted heterocycles (5, 6, 8–11 and 20) were selected for the study with calf thymus DNA (ctDNA), alternating AT-DNA (poly (dAdT)2) and AU-RNA (poly A-poly U).

Row | Compound | binding [1] | logKs [2] | logKs [3] | IC50 [4] | IC50 [5] | IC50 [6] | IC50 [7] | IC50 [8] | logKs (ctDNA (calf thymus DNA)) | logKs (p(dAdT)2 (AT-DNA)) | logKs (poly A-poly U (AU-RNA)) | ΔTm (ctDNA) | ΔTm (poly A-poly U) | ΔTm (poly(dAdT)2) | melting point | also measured
1 | c1cc(C2=NCCN2)c2ccn(Cc3cn(-c4ccc(C5=NCCN5)cc4)nn3)c2c1 | yes | 6.6 | 4.2 |  |  |  |  |  |  |  |  |  |  |  |  | 
2 | Cl.Cl.c1cc(C2=NCCN2)ccc1OCc1cn(-c2ccc(C3=NCCN3)cc2)nn1 [Compound 5, 1-(4-(4,5-Dihydro-1H-imidazol-2-yl)-phenyl]-4-((4-(4,5-dihydro-1H-imidazol-2-yl)phenyloxy)methyl]-1H-1,2,3-triazole dihydrochloride] | yes | 6.5 | 7.0 | 15.7 µM | 0.8 µM | 0.64 µM | 0.22 µM | < 0.01 µM | 5.7 | 6.5 | 7.0 | 5 °C | 2 °C | 14 °C | > 250 °C | binding [9]: yes
3 | c1cc(C2=NCCN2)c2ccn(Cc3cn(-c4ccc(C5=NCCN5)cc4)nn3)c2c1 [Compound 6, 1-((1-(4-(Dihydro-1H-imidazol-2-yl)phenyl)-1H-1,2,3-triazol-4-yl)methyl)-4-(dihydro-1H-imidazol-2-yl)-1H-indole dihydrochloride] |  |  |  | 49.9 µM | 13.5 µM | 2.37 µM | 18 µM | < 0.01 µM | 5.0 | 6.6 | 4.2 | 2 °C | 0 °C | 6 °C |  | 
4 | Cl.c1cnc2c(NCc3cn(-c4ccc(C5=NCCN5)cc4)nn3)cccc2c1 [Compound 8, 8-(((1-(4-(4,5-Dihydro-1H-imidazol-2-yl)phenyl)-1H-1,2,3-triazol-4-yl)methyl)amino)-quinoline hydrochloride] |  | 5.5 |  | 29.1 µM | 23.8 µM | 4.84 µM | 35.6 µM | 11.7 µM |  | 5.5 |  | 0 °C | 0 °C | 1 °C | 192 to 196 °C | selectivity index (SI) ([8]; normal HFF fibroblasts versus tumor cells): 2
5 | Cl.c1cnc2c(OCc3cn(-c4ccc(C5=NCCN5)cc4)nn3)cccc2c1 [Compound 9, 8-((1-(4-(4,5-Dihydro-1H-imidazol-2-yl)phenyl)-1H-1,2,3-triazol-4-yl)methyloxy)-quinoline hydrochloride] | yes | 5.8 | 5.1 | 25.2 µM | 10.3 µM | 9.07 µM | 2.69 µM | < 0.01 µM | 5.3 | 5.8 | 5.1 | 1 °C | 0 °C | 3 °C | 229 to 232 °C | 
6 | Cl.O=c1cc(OCc2cn(-c3ccc(C4=NCCN4)cc3)nn2)c2ccccc2o1 [Compound 10, 4-((1-(4-(4,5-Dihydro-1H-imidazol-2-yl)phenyl)-1H-1,2,3-triazol-4-yl)methyloxy)-coumarin hydrochloride] | yes | 6.7 |  | 7.86 µM | 1.9 µM | 3.55 µM | 1.75 µM | < 0.01 µM |  | 6.7 |  | 0 °C | 0 °C | 2 °C |  | binding [10]: yes
7 | Cl.O=c1ccc2ccc(OCc3cn(-c4ccc(C5=NCCN5)cc4)nn3)cc2o1 [Compound 11, 7-((1-(4-(4,5-Dihydro-1H-imidazol-2-yl)phenyl)-1H-1,2,3-triazol-4-yl)methyloxy)-coumarin hydrochloride] | yes | 4.9 | 4.9 | 4.49 µM | 2.13 µM | 0.28 µM | 4.77 µM | 3.14 µM |  | 4.9 | 4.9 | 0 °C | 0 °C | 2 °C | > 250 °C | selectivity index (SI) on HepG2 ([6]; HFF versus HepG2 cells): 11
8 | N/C(=N\O)c1ccc(-n2cc(COc3cccc4ccc(/C(N)=N/O)nc34)nn2)cc1 [Compound 20, (Z)-N′-Hydroxy-8-((1-(4-((Z)-N′-hydroxycarbamimidoyl)phenyl)-1H-1,2,3-triazol-4-yl)methoxy)quinoline-2-carboximidamide] |  |  |  | 31.4 µM | 7.15 µM | 51.3 µM | 7.24 µM |  | 4.3 ^d | 4.7 ^d | 4.6 ^d | 0 °C | 0 °C | 0 °C | 238 to 241 °C | selectivity index (SI) on HeLa ([5]; HFF versus HeLa cells): > 14; selectivity index (SI) on SW620 ([7]; HFF versus SW620 cells): > 14; solubility in water [11]: small aggregation
